Experimental data published in publication PMC6271168, “Fumigant Toxicity of Oriental Sweetgum (Liquidambar orientalis) and Valerian (Valeriana wallichii) Essential Oils and Their Components, Including Their Acetylcholinesterase Inhibitory Activity, against Japanese Termites (Reticulitermes speratus)” (Molecules, 2014).
Values after ≈ are worked out from the molar mass of the structure shown.

Target: T1, Japanese termite acetylcholinesterase (AChE)
T1 construct: gene AChE1; native; crude Triton X-100 extract (15,000 x g supernatant) of 50 whole adult termites, not purified
Experiment: modified Ellman assay, […] nm, probit analysis
Type: biochemical, Reticulitermes speratus
Settings: acetylthiocholine iodide substrate; pH 7.8 extraction buffer; room temperature; 10 min pre-incubation; crude extract

C=C/C(C)=C\CC=C(C)C [compound 6, cis-Ocimene]
IC50: 131 µg/mL (≈ 962 µM)
